Results on 3 compounds are retold here after patent publication US7569573B2, “Diketo acids with nucleobase scaffolds: anti-HIV replication inhibitors targeted at HIV integrase” (The University of Georgia Research Foundation, Inc., priority 2005, dated 2009).

A word on the IC50: it is the midpoint of a concentration-inhibition curve.

The subject of one data set is HIV. Briefly: In vitro anti-HIV activity, PBMC cell-based assay, side by side with AZT. To be noted: Human immunodeficiency virus 1.
The nature of data set [1]: Cytotoxicity (CC50) in the PBMC cell-based anti-HIV assay.
For data set [2] the following is noted: literature values, same sources as the IC50; cited from earlier work.

Each structure is given as a SMILES string. Read-outs that look alike come from different tables or passages of the source. A value given as a limit tells only on which side of the number the result lay.

`O=C(O)/C(O)=C/C(=O)c1cn(Cc2ccccc2)c(=O)n(Cc2ccccc2)c1=O`: the IC50 with HIV was determined as 0.02 µM. Besides, in data set [1], the CC50 is above 200 µM.

As for `O=C(O)C(=O)CC(=O)c1cc(OCc2ccccc2)cc(OCc2ccccc2)c1` [Example L-708906], in data set [2], the CC50 is 88.3 µM.

Regarding `O=C(/C=C(\O)c1nc[nH]n1)c1ccc(Cc2ccc(F)cc2)o1` [Example S-1360], the CC50 in data set [2] was 110 µM.
